What is called melting point is the temperature, or range, at which the solid turns liquid.

The values that follow come from patent publication US9914722B2, “Compounds for treating spinal muscular atrophy” (PTC Therapeutics Inc., priority 2012, dated 2018).

Data set [1] relates to full length SMN2 minigene mRNA containing SMN2 exon 7 (SMN2-A minigene). The experiment in a line: SMN2 minigene mRNA splicing RT-qPCR assay in cultured cells. It is filed as cell-based, human. Particulars: Homo sapiens, HEK293-H; HEK293H cells stably transfected with SMN2-A minigene, 24 hours, 7-point concentration curve; concentration giving 1.5-fold SMN2 full length mRNA vs vehicle; read-out: EC1.5x for production of full length SMN2 mRNA. In a few lines:
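HEK293H cells stably carrying the SMN2-A minigene were treated 24 h at 37 °C with a 7-point, 3.16-fold test compound series, in duplicate. Multiplex RT-qPCR measured exon 7-containing minigene FL mRNA, normalized to GAPDH and expressed relative to vehicle; EC1.5x is the concentration giving 1.5-fold FL mRNA.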
(In qPCR the cycle at which signal appears reflects the starting amount.)

The subject of a further data set is Smn protein. The experiment in a line: Smn protein assay (Smn HTRF) in cultured cells. It counts as cell-based, human. Particulars: Homo sapiens, Fibroblast, GM03813 SMA Type 1 patient fibroblasts, 48 hours, HTRF; for maximal fold induction: 7-point concentration data, relative to vehicle, read-out: maximum fold (Fold) increase of Smn protein; for EC (1.5-fold): concentration producing 1.5 times Smn protein vs DMSO vehicle, read-out: EC1.5x for Smn protein expression. In a few lines: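 SMA patient fibroblasts (5,000/well) were exposed to a 7-point, 3.16-fold compound dilution series for 48 hours at 37° C, in triplicate. Lysates were read by HTRF with anti-SMN d2/kryptate at 665/620 nm. Blank-corrected signal was expressed as fold over DMSO vehicle, giving the EC1.5x and the maximum fold increase.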

Bounds are passed on as bounds.

As to `COc1ccc(-c2cc(=O)c3cc(N4CCN[C@@H](C)C4)ccc3o2)cc1Cl` [Cpd 59, 2-(3-chloro-4-methoxyphenyl)-6-[(3S)-3-methylpiperazin-1-yl]-4H-chromen-4-one], the melting point is 172 to 174 °C. Also, the EC (1.5-fold) in data set [1] is not above 0.1 µM. Moreover, in the data set with Smn protein, the maximal fold induction lay in the range of 1.5 to 1.65 and the EC (1.5-fold) is not above 0.3 µM.
In turn, `COc1ccc(-c2cc(=O)c3cc(N4C[C@@H](C)N[C@@H](C)C4)ccc3o2)cc1Cl` [Cpd 60, 2-(3-chloro-4-methoxyphenyl)-6-[(3R,5S)-3,5-dimethylpiperazin-1-yl]-4H-chromen-4-one] had a melting point of 176 to 178 °C. In data set [1], the EC (1.5-fold) was in the range of 0.1 to 0.3 µM. Further, in the data set on Smn protein, the maximal fold induction is more than 1.65 and the EC (1.5-fold) lay in the range of 1 to 3 µM.
As to `COc1ccc(-c2cc(=O)c3cc(N4CCN[C@H](C)C4)ccc3o2)cc1Cl` [Cpd 61, 2-(3-chloro-4-methoxyphenyl)-6-[(3R)-3-methylpiperazin-1-yl]-4H-chromen-4-one], the melting point was 170 to 172 °C. The EC (1.5-fold) in data set [1] lay within 0.1 to 0.3 µM. The maximal fold induction with Smn protein fell in the range of 1.2 to 1.35.
Turning to `COc1ccc(-c2cc(=O)c3cc(N4CCNCC4)ccc3o2)cc1` [Cpd 62, 2-(4-methoxyphenyl)-6-(piperazin-1-yl)-4H-chromen-4-one], the melting point is 166 to 170 °C. Further, the EC (1.5-fold) in data set [1] was in the range of 0.1 to 0.3 µM. For the same compound, the maximal fold induction with Smn protein is 1.2 to 1.35.
In turn, `COc1ccc(-c2cc(=O)c3cc(N4CCN[C@@H](C)C4)ccc3o2)cc1` [Cpd 63, 2-(4-methoxyphenyl)-6-[(3S)-3-methylpiperazin-1-yl]-4H-chromen-4-one] returned a melting point of 155 to 160 °C. Moreover, the EC (1.5-fold) in data set [1] lay within 0.1 to 0.3 µM. Also, in the data set with Smn protein, the maximal fold induction lay within 1.5 to 1.65 and the EC (1.5-fold) was in the range of 0.3 to 1 µM.
In the case of `O=c1cc(-c2ccc(OC(F)(F)F)cc2)oc2ccc(N3CCNCC3)cc12` [Cpd 64, 6-(piperazin-1-yl)-2-[4-(trifluoromethoxy)phenyl]-4H-chromen-4-one], the melting point lay within 146 to 148 °C. For the same compound, the EC (1.5-fold) in data set [1] fell in the range of 0.3 to 1 µM. In addition, the maximal fold induction in the data set with Smn protein was not above 1.2.
Consider `C[C@H]1CN(c2ccc3oc(-c4ccc(OC(F)(F)F)cc4)cc(=O)c3c2)CCN1` [Cpd 65, 6-[(3S)-3-methylpiperazin-1-yl]-2-[4-(trifluoromethoxy)phenyl]-4H-chromen-4-one], for which the melting point was in the range of 138 to 140 °C. Further, the EC (1.5-fold) in data set [1] was in the range of 1 to 3 µM. The maximal fold induction in the data set on Smn protein is not above 1.2.
On the same counts, the results for `O=c1cc(-c2cccc(F)c2)oc2ccc(N3CCNCC3)cc12` [Cpd 66, 2-(3-fluorophenyl)-6-(piperazin-1-yl)-4H-chromen-4-one] are 150 to 152 °C, 0.1 to 0.3 µM and 1.35 to 1.5.
In turn, `O=c1cc(-c2cccc(C(F)(F)F)c2)oc2ccc(N3CCNCC3)cc12` [Cpd 67, 6-(piperazin-1-yl)-2-[3-(trifluoromethyl)phenyl]-4H-chromen-4-one] displayed a melting point of 174 to 176 °C. Besides, the EC (1.5-fold) in data set [1] lay in the range of 0.1 to 0.3 µM. In the data set with Smn protein, the maximal fold induction is 1.5 to 1.65 and the EC (1.5-fold) was in the range of 0.3 to 1 µM.
`COc1ccc(-c2cc(=O)c3cc(N4CCNCC4)ccc3o2)cc1OC(F)(F)F` [Cpd 68, 2-[4-methoxy-3-(trifluoromethoxy)phenyl]-6-(piperazin-1-yl)-4H-chromen-4-one] registered a melting point of 104 to 106 °C. Moreover, the EC (1.5-fold) in data set [1] lay within 0.3 to 1 µM. Further, the maximal fold induction in the data set on Smn protein was not above 1.2.
The like results for `COc1ccc(-c2cc(=O)c3cc(N4CCNCC4)ccc3o2)cc1C(F)(F)F` [Cpd 69, 2-[4-methoxy-3-(trifluoromethyl)phenyl]-6-(piperazin-1-yl)-4H-chromen-4-one] were, in that order, 128 to 132 °C, 0.3 to 1 µM and 1.35 to 1.5.
For `COc1ccc(-c2cc(=O)c3cc(N4CCN[C@@H](C)C4)ccc3o2)cc1OC(F)(F)F` [Cpd 70, 2-[4-methoxy-3-(trifluoromethoxy)phenyl]-6-[(3S)-3-methylpiperazin-1-yl]-4H-chromen-4-one], the melting point lay within 142 to 146 °C. Also, the EC (1.5-fold) in data set [1] lay in the range of 0.3 to 1 µM. For the same compound, the maximal fold induction in the data set with Smn protein lay within 1.2 to 1.35.
Compound `COc1ccc(-c2cc(=O)c3cc(N4CCN[C@@H](C)C4)ccc3o2)cc1C(F)(F)F` [Cpd 71, 2-[4-methoxy-3-(trifluoromethyl)phenyl]-6-[(3S)-3-methylpiperazin-1-yl]-4H-chromen-4-one] gave a melting point of 182 to 184 °C. In addition, the EC (1.5-fold) in data set [1] lay within 0.1 to 0.3 µM. Further, in the data set on Smn protein, the maximal fold induction was in the range of 1.35 to 1.5 and the EC (1.5-fold) lay in the range of 3 to 10 µM.
On the same counts, the results for `Cc1cn2cc(-c3cc(=O)c4cc(N5CCN[C@@H](C)C5)ccc4o3)nc2cn1` [Cpd 73, 2-(6-methylimidazo[1,2-a]pyrazin-2-yl)-6-[(3S)-3-methylpiperazin-1-yl]-4H-chromen-4-one] are 212 to 216 °C, not above 0.1 µM, more than 1.65 and not above 0.3 µM.
With `O=c1cc(-c2cncc(F)c2)oc2ccc(N3CCNCC3)cc12` [Cpd 74, 2-(5-fluoropyridin-3-yl)-6-(piperazin-1-yl)-4H-chromen-4-one], the melting point was 182 to 184 °C. Further, the EC (1.5-fold) in data set [1] lay within 0.3 to 1 µM. Further, in the data set with Smn protein, the maximal fold induction lay within 1.5 to 1.65 and the EC (1.5-fold) is 1 to 3 µM.
The like results for `C[C@H]1CN(c2ccc3oc(-c4cncc(F)c4)cc(=O)c3c2)CCN1` [Cpd 75, 2-(5-fluoropyridin-3-yl)-6-[(3S)-3-methylpiperazin-1-yl]-4H-chromen-4-one] were, in that order, 168 to 172 °C, 0.3 to 1 µM, 1.5 to 1.65 and 1 to 3 µM.
On the same counts, the results for `Cc1csc(-c2cc(=O)c3cc(N4CCNCC4)ccc3o2)n1` [Cpd 76, 2-(4-methyl-1,3-thiazol-2-yl)-6-(piperazin-1-yl)-4H-chromen-4-one] are 179 to 182 °C, 0.3 to 1 µM, 1.5 to 1.65 and 1 to 3 µM.
On the same counts, the results for `C[C@H]1CN(c2ccc3oc(-c4cccc(F)c4)cc(=O)c3c2)CCN1` [Cpd 77, 2-(3-fluorophenyl)-6-[(3S)-3-methylpiperazin-1-yl]-4H-chromen-4-one] are 170 to 172 °C, 0.1 to 0.3 µM, 1.5 to 1.65 and 0.3 to 1 µM.
Consider `C[C@H]1CN(c2ccc3oc(-c4cccc(C(F)(F)F)c4)cc(=O)c3c2)CCN1` [Cpd 78, 6-[(3S)-3-methylpiperazin-1-yl]-2-[3-(trifluoromethyl)phenyl]-4H-chromen-4-one], for which the melting point was in the range of 150 to 152 °C. In addition, the EC (1.5-fold) in data set [1] is not above 0.1 µM. Moreover, in the data set with Smn protein, the maximal fold induction was more than 1.65 and the EC (1.5-fold) is not above 0.3 µM.
The like results for `O=c1cc(-c2cc(F)cc(F)c2)oc2ccc(N3CCNCC3)cc12` [Cpd 79, 2-(3,5-difluorophenyl)-6-(piperazin-1-yl)-4H-chromen-4-one] were, in that order, 180 to 190 °C, not above 0.1 µM, 1.35 to 1.5 and 3 to 10 µM.
On the same counts, the results for `C[C@H]1CN(c2ccc3oc(-c4cc(F)cc(F)c4)cc(=O)c3c2)CCN1` [Cpd 80, 2-(3,5-difluorophenyl)-6-[(3S)-3-methylpiperazin-1-yl]-4H-chromen-4-one] are 175 to 178 °C, not above 0.1 µM, 1.5 to 1.65 and 0.3 to 1 µM.
